Measured values published in patent US5510338A, “Phosphonoalkylquinolin-2-ones as novel antagonists of non-NMDA ionotropic excitatory amino acid receptors” (priority 1994, dated 1996).

Key:
[1] = molecular target: T1, Glycine (strychnine insensitive glycine binding) (Rattus norvegicus, UniProt P35439); assay: Strychnine insensitive glycine binding; conditions: read-out: Receptor Potency (Ki), Glycine
T1 construct: from tissue
Experimental: Binding assays for the displacement of ^3 H!AMPA were performed as described by Murphy et al. (Neurochemical Reseach. 12: 775-781 1987!). KA binding assays were performed as described by London et al (Molecular Pharmacology. 15:492-505 1979!); strychnine insensitive glycine binding was evaluated by the method of Snell et al (European Journal of Pharmacology. 156: 105-110 1988!.

[2] = molecular target: CNQX-labeled non-NMDA receptors; assay: Inhibition of EAA receptor ligand binding, CNQX (CNQX-labeled non-NMDA receptors); conditions: for Ki: inhibition of EAA receptor ligand binding, CNQX-labeled non-NMDA receptors, read-out: Receptor Potency (Ki), CNOX; for selectivity for NMDA vs non-NMDA receptors: in words, from Table II data
[3] = molecular target: KA receptors (KA-induced currents in rat brain mRNA-injected Xenopus oocytes); assay: Inhibition of KA-induced currents in rat brain mRNA-injected Xenopus oocytes; format: cell-based; conditions: for Potency to inhibit KA-induced currents, Ki: rat brain mRNA-injected Xenopus oocytes, voltage clamped at -60 to -70 mV, IC50 converted to Ki by Cheng-Prusoff equation
Experimental: Defolliculated oocytes obtained from Xenopus laevis females were injected with 30-75 ng of poly (A+) mRNA obtained from 21-day old male Sprague-Dawley rats. Oocytes were placed individually in 100 ml of antibiotic-supplemented modified Barthes solution (MBS, containing in mM: NaCl, 88; KCl 1.0; NaHCO3, 2.4 HEPES, 10; MgSO4 0.82; Ca(NO3)2, 0.33) in 96-well sterile plates and cultured for 48-120 hours prior to experimentation. Oocytes were inspected every 24 hours at which time the bathing solution is replaced with fresh MBS.
For electrophysiological studies, oocytes were positioned in a small recording chamber (500 ml) and superfused with antibiotic free MBS supplemented with CaCl2 (final concentration=1.4 mM). Oocytes are impaled with a single glass microelectrode, voltage clamped at -60 to -70 mV, and perfused by gravity feed at a rate of 3-5 ml/min at room temperature. […] Antagonists are coperfused with agonists.
Potencies to inhibit kainic acid-, AMPA- and NMDA/glycine-induced currents are determined from concentration-response curves. IC50 values are converted to Ki values for comparison purposes using the Cheng-Prusoff equation.

GLU = assay: Inhibition of EAA receptor ligand binding, GLU; conditions: read-out: Receptor Potency (Ki), GLU
kainate receptors = conditions: U.S. Pat. No. 4,657,899, Table I on column 13; cited from earlier work
NMDA = conditions: U.S. Pat. No. 4,657,899; cited from earlier work

| SMILES | Ki [1] | Ki [2] | Potency to inhibit KA-induced currents, Ki [3] | Ki (GLU) | selectivity for NMDA vs non-NMDA receptors [2] | binding affinity for kainate receptors (in words) (kainate receptors) | NMDA antagonist activity (in words) (NMDA) | activity in words of related compounds tested [3] |
| --- | --- | --- | --- | --- | --- | --- | --- | --- |
| O=c1cc(CP(=O)(O)O)c2cc(Cl)c(Cl)cc2[nH]1 [Example 5, 6,7-Dichloro-4-phosphonomethylquinolin-2-one] |  | 15 µM | 9.6 µM | > 100 µM | quite selective |  |  |  |
| CCC(c1ccccc1CCCP(=O)(O)O)C(N)C(=O)O (stereo not drawn) [2-amino-3-2-(3-phosphonopropyl) phenyl!pentanoic acid] |  |  |  |  |  | very low binding affinity | antagonists of NMDA |  |
| NC(Cc1ccccc1CCP(=O)(O)O)C(=O)O (stereo not drawn) [2-amino-3-2-(2-phosphonoethyl)phenyl!propanoic acid] |  |  |  |  |  | very low binding affinity | antagonists of NMDA |  |
| O=c1cc(CP(=O)(O)O)c2ccc(Cl)c([N+](=O)[O-])c2[nH]1 [Example 25, 7-Chloro-8-nitro-4-phosphonomethylquinolin-2-one] | > 1000 µM | 300 µM |  | > 1000 µM |  |  |  |  |
| NC(Cc1ccccc1CP(=O)(O)O)C(=O)O (stereo not drawn) [2-amino-3-2-phosphonomethylphenyl!propanoic acid] |  |  |  |  |  | very low binding affinity | antagonists of NMDA |  |
| NC(CCCc1ccccc1CP(=O)(O)O)C(=O)O (stereo not drawn) [2-amino-5-2-phosphonomethylphenyl!pentanoic acid] |  |  |  |  |  | very low binding affinity | antagonists of NMDA |  |
| CCOP(=O)(Cc1cc(=O)[nH]c2cc(Cl)cc(Cl)c12)OCC [Example 21a, 5,7-Dichloro-4-(diethoxyphosphinyl)methylquinolin-2-one] | 103 µM | > 100 µM | 480 µM |  |  |  |  | essentially inactive |
| O=c1cc(CP(=O)(O)O)c2c(Cl)cc(Cl)cc2[nH]1 [Example 3, 5,7-Dichloro-4-phosphonomethylquinolin-2-one] | 28 µM | 38 µM | 18.2 µM | > 100 µM | quite selective |  |  |  |
| O=c1cc(CP(=O)(O)O)c2c([N+](=O)[O-])c(Cl)ccc2[nH]1 [Example 26, 6-Chloro-5-nitro-4-phosphonomethylquinolin-2-one] | > 1000 µM | > 1000 µM | > 300 µM | > 1000 µM |  |  |  |  |

The next lines start with results.

| Ki [1] | Ki [2] | Potency to inhibit KA-induced currents, Ki [3] | Ki (GLU) | selectivity for NMDA vs non-NMDA receptors [2] | SMILES | binding affinity for kainate receptors (in words) (kainate receptors) | NMDA antagonist activity (in words) (NMDA) | activity in words of related compounds tested [3] |
| --- | --- | --- | --- | --- | --- | --- | --- | --- |
| 68 µM | 64 µM | 129 µM |  |  | O=C(O)c1cc(CP(=O)(O)O)c2ccc(Cl)cc2n1 [Example 23, 2-Carboxy-7-chloro-4-phosphonomethylquinoline] |  |  |  |
| > 1000 µM |  | > 100 µM | > 300 µM |  | O=c1cc(P(=O)(O)O)c2ccc(Cl)cc2[nH]1 [Example 24, 7-Chloro-4-phosphonoquinolin-2-one] |  |  |  |
| 29 µM | 26 µM | 15.6 µM | 35 µM | not very selective | O=c1cc(CP(=O)(O)O)c2ccc(I)cc2[nH]1 [Example 4, 7-Iodo-4-phosphonomethylquinolin-2-one] |  |  |  |
| 231 µM | 91 µM |  | 600 µM |  | O=c1cc(CCP(=O)(O)O)c2ccc(Cl)cc2[nH]1 [Example 1, 7-Chloro-4-phosphonethylquinolin-2-one] |  |  |  |
| > 1000 µM | 384 µM | 450 µM | > 100 µM |  | O=C(O)c1cc(CCP(=O)(O)O)c2ccc(Cl)cc2n1 [Example 22, 2-Carboxy-7-chloro-4-phosphonethylquinoline] |  |  |  |
| 10 µM | 59 µM | 32 µM | 30 µM | not very selective | O=c1cc(CP(=O)(O)O)c2ccc(Cl)cc2[nH]1 [Example 2, 7-Chloro-4-phosphonomethylquinolin-2-one] |  |  |  |
